Assay results taken from ChEMBL document CHEMBL5441456, “ASAP - SARS-CoV-2 nsp3 macrodomain dose response” (2024).
“And” between values parts separate entries of the source, which are not always exact repeats. Identical values can stand only once.

Biological target: Replicase polyprotein 1ab (Severe acute respiratory syndrome coronavirus 2, UniProt P0DTD1)
Assay: Functional biochemical assay to identify treatments for viral infectious disease that targets SARS-COV-2 nsp3 macrodomain, whereby the mechanism of action displaces an ADP-Ribose modified peptide from the binding site. Utilizing a time-resolved fluorescence method to measure binding by reading the emitted fluorescence intensity in two wavelengths.

Compound | IC50
Cc1[nH]c2ncnc(NC(=O)c3ccc(C#N)nc3)c2c1C | > 99.5 µM
O=C(O)[C@@H](Nc1ncnc2[nH]ccc12)C1CC1 | 72.2 µM and 72 µM
O=C(O)[C@@H]1C[C@H](F)CN1c1ncnc2[nH]ccc12 | > 99.5 µM
COc1nc(N[C@@H](c2ccc3c(c2)OCCO3)C(C)C)c2cc[nH]c2n1 | > 99.5 µM
CC(C)[C@H](Nc1ncnc2nccnc12)c1ccc2c(c1)S(=O)(=O)CCC2 | > 99.5 µM
c1nc(N2CCC[C@@H]2c2ccc3c(c2)OCCO3)c2cc[nH]c2n1 | > 99.5 µM
COC(=O)c1coc(-c2cc3c(N[C@@H](c4ccc5c(c4)OCCO5)C(C)C)ncnc3[nH]2)c1 | 9.28 µM and 10.7 µM and 10.1 µM
CC(C)[C@H](Nc1ncnc2c1CCN2)c1ccc2c(c1)S(=O)(=O)CCC2 | 52.1 µM
CC(C)[C@H](Nc1nccc2[nH]ccc12)c1ccc2c(c1)S(=O)(=O)CCC2 | > 99.5 µM
CC(C)[C@@H](Nc1ncnc2[nH]c(-c3cnn(C)n3)cc12)c1ccc2c(c1)OCCO2 | 0.485 µM and 0.517 µM
c1nc(Nc2ccc3c(c2)OCO3)c2cc[nH]c2n1 | > 99.5 µM
CC(C)[C@@H](Nc1ncnc2[nH]c(-c3cnc(N4CC(O)C4)nc3)cc12)c1ccc2c(c1)S(=O)(=O)CCC2 | 0.094 µM and 0.068 µM and 0.116 µM
c1nc(N[C@@H](C2CC2)[C@@H]2CCCOC2)c2cc[nH]c2n1 | > 99.5 µM
Cc1ccc(-c2cc3c(N[C@@H](c4ccc5c(c4)OCCO5)C(C)C)ncnc3[nH]2)o1 | 40.6 µM and 37.6 µM
Cc1[nH]c2ncnc(NC(=O)[C@@H]3CCc4c(Cl)cccc43)c2c1C | > 99.5 µM
CC(C)[C@@H](Nc1ncnc2[nH]c(-c3cccc(C#N)c3)cc12)c1ccc2c(c1)OCCO2 | 17.8 µM and 22.1 µM
CC(C)[C@@H](Nc1ncnc2[nH]c(C(=O)N[C@H]3CCN(C)C3)cc12)c1ccc2c(c1)S(=O)(=O)CCC2 | 0.054 µM and 0.107 µM
CC(C)[C@@H](Nc1ncnc2[nH]c(-c3ccc(=O)n(C)c3)cc12)c1ccc2c(c1)S(=O)(=O)CCC2 | 0.05 µM and 0.046 µM and 0.04 µM and 0.048 µM and 0.078 µM
CC(C)[C@@H](Nc1ncnc2[nH]ccc12)c1ccc(F)c(C#N)c1 | 4.15 µM and 16.6 µM
CNS(=O)(=O)c1cc2c(N[C@@H](c3ccc4c(c3)S(=O)(=O)CCC4)C(C)C)ncnc2[nH]1 | 1.17 µM
O=C(Nc1cccc2c(C(=O)N[C@@H]3c4ccccc4C[C@@H]3C(=O)O)c[nH]c12)NC1CC1 | 3.47 µM and 3.78 µM and 2.28 µM and 1.85 µM
CC(C)[C@@H](Nc1ncnc2[nH]c(-c3ccn(C(C)C)n3)cc12)c1ccc2c(c1)OCCO2 | 2.27 µM and 2.62 µM
CNC(=O)c1cc2c(N[C@@H](c3ccc4c(c3)OCCO4)C(C)C)ncnc2[nH]1 | 0.45 µM and 0.366 µM

Compound | IC50
Cc1[nH]c2ncnc(NC(=O)c3cnc(Cl)cn3)c2c1C | > 99.5 µM
CNc1ncnc(N[C@H](c2ccc3c(c2)S(=O)(=O)CCC3)C(C)C)c1Cl | > 99.5 µM
CC(C)[C@@H](Nc1cc(N2CCNCC2)ncn1)c1ccc2c(c1)S(=O)(=O)CCC2 | > 99.5 µM
CCNC(=O)c1cc2c(N[C@H](c3cnc(C(=O)N(C)C)nc3)C(C)C)ncnc2[nH]1 | 47.5 µM
CC(C)[C@@H](Nc1ncnc2[nH]c(-c3ccc4nccn4c3)cc12)c1ccc2c(c1)OCCO2 | 1.14 µM and 1.38 µM
O=C(Nc1cccc2c(C(=O)N[C@@H](c3ccccc3)C(F)F)c[nH]c12)NC1CC1 | > 99.5 µM
CC(C)[C@@H](Nc1ncnc2[nH]c(-c3ccc4c(c3)C(C)(C)C(=O)N4)cc12)c1ccc2c(c1)S(=O)(=O)CCC2 | 0.334 µM
CC(C)[C@@H](Nc1ncnc2ccccc12)c1ccc2c(c1)OCCO2 | 58.3 µM and 59.9 µM
CC(C)[C@@H](Nc1ncnc2[nH]c(-c3cncc(S(C)(=O)=O)c3)cc12)c1ccc2c(c1)S(=O)(=O)CCC2 | 0.039 µM and 0.079 µM and 0.057 µM and 0.143 µM
CC(C)[C@@H](Nc1ncnc2[nH]c(C(=O)NCc3ccn(C)n3)cc12)c1ccc2c(c1)OCCO2 | 0.955 µM and 1.04 µM
CC(C)[C@@H](Nc1ncnc2[nH]c(-c3ccc4[nH]ncc4c3)cc12)c1ccc2c(c1)OCCO2 | 20.5 µM and 19.7 µM
CCNC(=O)c1cc2c(N[C@@H](c3ccc4c(c3)CCN4C(=O)C3CC3)C(C)C)ncnc2[nH]1 | 24.6 µM
O=C(O)C[C@@H](NC(=O)c1ncnc2[nH]ccc12)c1ccc(Nc2nnc(C3CC3)o2)cc1 | 3.78 µM and 4.55 µM
C[C@@H](c1ccc(F)c(F)c1)N(C)C(=O)c1ncnc2[nH]ccc12 | > 99.5 µM
CC(C)[C@@H](Nc1ncnc2[nH]c(-c3ccco3)cc12)c1ccc2c(c1)OCCO2 | 6.2 µM and 6.1 µM
O=C(O)C[C@@H](NC(=O)c1nccc2[nH]ncc12)c1ccc(Br)cc1 | 24.7 µM and 24.2 µM
CC(C)[C@H](Nc1cc(N2CCOCC2)ncn1)c1ccc2c(c1)S(=O)(=O)CCC2 | > 99.5 µM
CC(C)[C@@H](Nc1ncnc2[nH]ccc12)c1ccc2c(c1)N(C)C(=O)CO2 | 67.7 µM and 67.4 µM
CC(C)[C@@H](Nc1ncnc2[nH]c(-c3cc4c(cc3F)NC(=O)CC4)cc12)c1ccc2c(c1)S(=O)(=O)CCC2 | 0.297 µM and 0.189 µM and 0.345 µM
CNCc1cc(-c2cc3c(N[C@@H](c4ccc5c(c4)NC(=O)CO5)C(C)C)ncnc3[nH]2)co1 | 0.313 µM and 0.187 µM
CC(C)[C@@H](Nc1ncnc2[nH]c(-c3ccoc3)cc12)c1ccc2c(c1)OCCO2 | 1.52 µM and 1.64 µM
O=C(O)C[C@@H](NC(=O)c1cc2[nH]ccc2cn1)c1ccc(Br)cc1 | 6.82 µM and 7.54 µM
CC(C)[C@@H](Nc1ncnc2[nH]c(-c3ccc4cncn4c3)cc12)c1ccc2c(c1)S(=O)(=O)CCC2 | 0.123 µM and 0.095 µM

Compound | IC50
COC(=O)c1cc2c(N[C@@H](c3ccc4c(c3)CCN4)C(C)C)ncnc2[nH]1 | 28.8 µM and 37.6 µM and 28.4 µM
O=C(NCc1cc2n(n1)CCCC2)c1cc2cncnc2[nH]1 | > 124 µM
CC(=O)Nc1ccc([C@@H](CC(=O)O)NC(=O)c2ncnc3[nH]ccc23)cc1 | 14.5 µM and 14.6 µM
CC(C)[C@@H](Nc1ncnc2[nH]c(-c3ccnc(OCCN(C)C)c3)cc12)c1ccc2c(c1)S(=O)(=O)CCC2 | 0.114 µM
CC(C)[C@H](Nc1ncnc2[nH]c(-c3cnn(CC(N)=O)c3)cc12)c1ccc2c(c1)S(=O)(=O)CCC2 | 21 nM and 16 nM and 31 nM (2×) and 15 nM and 23 nM (2×) and 25 nM
Cn1c(C(=O)O)c(NC(=O)c2ccc(NC(=O)NC3CC3)cc2)c2ccccc21 | > 99.5 µM
CC(C)[C@H](Nc1cc(-c2nc[nH]n2)ncn1)c1ccc2c(c1)S(=O)(=O)CCC2 | > 99.5 µM
N#Cc1ccc(C(=O)Nc2ccc(C(=O)N[C@@H]3c4ccccc4C[C@@H]3C(=O)O)cc2)cc1 | > 99.5 µM
O=C(O)c1cn(CCCNC(=O)c2ncnc3[nH]ccc23)nn1 | > 99.5 µM
CC(C)[C@@H](Nc1ncnc2[nH]c(C(=O)NCC3CN(C)C3)cc12)c1ccc2c(c1)OCCO2 | 0.866 µM and 0.79 µM
Cc1csc(NC(=O)CSC[C@@H](NC(=O)c2ncnc3[nH]ccc23)C(=O)O)n1 | > 99.5 µM
CC(C)[C@H](Nc1ncnc2[nH]c(-c3cnn(CC(=O)N(C)C)c3)cc12)c1ccc2c(c1)OCCO2 | 0.235 µM and 0.395 µM
O=C(N[C@@H](C(=O)O)c1ccc(Br)cc1)c1ncnc2[nH]ccc12 | 52.1 µM and 62.9 µM
CC(C)[C@@H](Nc1ncnc2[nH]c(C(=O)NCc3ncccn3)cc12)c1ccc2c(c1)OCCO2 | 2.94 µM and 5.87 µM
CC(C)[C@@H](Nc1ncnc2[nH]c(C(=O)NCc3c[nH]cn3)cc12)c1ccc2c(c1)OCCO2 | 1.15 µM and 2.57 µM
O=C(NCc1ccc(F)cn1)c1ncnc2[nH]ccc12 | > 99.5 µM
CC(C)[C@@H](Nc1cc(N)ncn1)c1ccc2c(c1)S(=O)(=O)CCC2 | 43.8 µM
CC(C)[C@@H](Nc1ncnc2[nH]ccc12)c1ccc2c(c1)S(=O)(=O)CO2 | 3.62 µM and 2.35 µM
O=C(O)C[C@@H](NC(=O)c1cccc2cc[nH]c12)c1ccc(Br)cc1 | > 99.5 µM
CC(C)[C@@H](Nc1ncnc2[nH]c(-c3ccn(C)c(=O)c3)cc12)c1ccc2c(c1)S(=O)(=O)CCC2 | 0.074 µM and 0.063 µM and 0.112 µM
O=C(N[C@@H](Cc1nn[nH]n1)c1ccc(Br)cc1)c1ncnc2[nH]ccc12 | 1.92 µM and 2.11 µM
CC(C)[C@@H](Nc1ncnc2[nH]c(C(=O)Nc3cn[nH]c3)cc12)c1ccc2c(c1)OCCO2 | 2.57 µM
Cc1[nH]c2ncnc(NC(=O)c3ccc(-n4cccn4)nc3)c2c1C | > 99.5 µM

Compound | IC50
CC(C)[C@@H](Nc1ccncn1)c1ccc2c(c1)S(=O)(=O)CCC2 | > 99.5 µM
C[C@@H](O)[C@@H](NC(=O)c1csc2c(NC(=O)NC3CC3)ncnc12)c1ccccc1F | > 99.5 µM
CC(=O)Nc1cccc([C@@H](CC(=O)O)NC(=O)c2ncnc3[nH]ccc23)c1 | 25.8 µM and > 12.4 µM and 20.7 µM
COc1ccc([C@@](C)(CC(=O)O)NC(=O)c2ncnc3[nH]ccc23)cc1 | 19.3 µM and 18.2 µM
CNc1c[nH]c2ncnc(N[C@@H](c3ccc4c(c3)OCCO4)C(C)C)c12 | 28.9 µM
CC(C)[C@@H](Nc1ncnc2[nH]c(-c3ccc4nnn(C)c4c3)cc12)c1ccc2c(c1)S(=O)(=O)CCC2 | 0.1 µM and 0.085 µM
O=C(Nc1cccc2c(C(=O)Nc3cc4c(cc3CO)OCCO4)c[nH]c12)NC1CC1 | > 99.5 µM
O=C(O)C[C@@H](NC(=O)c1cnc2[nH]ccc2c1)c1ccc(Br)cc1 | > 99.5 µM
O=C(O)C[C@@H](NC(=O)c1ccc(NC(=O)NC2CC2)cc1)c1cccnc1 | 77.1 µM and 68.2 µM
O[C@H]1C[C@](CNc2ncnc3[nH]ccc23)(c2ccccc2)C1 | > 124 µM
Cc1ccc([C@@H](Nc2ncnc3[nH]ccc23)C(C)C)cc1S(C)(=O)=O | 7.29 µM and 11.3 µM
CC(C)[C@@H](Nc1ncnc2[nH]c(-c3cnn(C)c3)cc12)c1ccc2c(c1)S(=O)(=O)NCC2 | 0.071 µM and 0.057 µM
CNS(=O)(=O)C[C@@H](NC(=O)c1ncnc2[nH]ccc12)c1ccc(Br)cc1 | > 99.5 µM
CC(C)[C@@H](Oc1ncnc2[nH]ccc12)c1ccc2c(c1)S(=O)(=O)CCC2 | 6.05 µM
CC(C)[C@@H](Nc1ncnc2[nH]c(-c3cnn(C(C)C)n3)cc12)c1ccc2c(c1)OCCO2 | 1.7 µM and 2.13 µM
CC(C)[C@@H](Nc1ncnc2[nH]c(-c3cnn(C(C)C)c3C#N)cc12)c1ccc2c(c1)OCCO2 | 1.84 µM and 2.02 µM
CC(C)[C@@H](Nc1ncnc2[nH]c(C(=O)N[C@@H]3CCN(C)C3)cc12)c1ccc2c(c1)OCCO2 | 0.414 µM and 0.502 µM
CCNC(=O)c1cc2c(N[C@H](c3ccc4c(c3)NS(=O)(=O)CO4)C(C)C)ncnc2[nH]1 | 0.029 µM and 0.038 µM and 0.037 µM
CCNC(=O)c1cc2c(N[C@@H](c3ccc4c(c3)S(=O)(=O)NCC4)C(C)C)ncnc2[nH]1 | 0.124 µM and 0.117 µM and 0.095 µM and 0.197 µM
CC(C)[C@@H](Nc1ncnc2[nH]c(-c3cnn(C4(C(N)=O)CC4)c3)cc12)c1ccc2c(c1)OCCO2 | 1.04 µM and 1.38 µM and 1.31 µM
NC(=O)[C@@H](NC(=O)c1ncnc2[nH]ccc12)c1ccc(Br)cc1 | > 99.5 µM
O=C(O)C[C@@H](NC(=O)c1ccc(NC(=O)NC2CC2)cc1)c1cccc(F)c1 | 27.3 µM and 32.5 µM
COc1cccc([C@@H](CC(=O)O)NC(=O)c2ncnc3[nH]ccc23)c1 | 16.3 µM and 21.7 µM
